Measured values taken from patent US9296725B2, “Heterocyclyl pyrimidine analogues as TYK2 inhibitors” (Cellzome Limited, priority 2012, dated 2016).
Read-outs that look alike come from different tables or passages of the source.

Tests used:
JAK2 = molecular target: T1, JAK2 (Homo sapiens, UniProt O60674); experiment: Kinobeads assay, JAK2 (competition binding in mixed Molt4/Ramos cell lysate, dot blot detection); conditions: read-out: JAK2 Band (Kinobeads assay potency, IC50)
T1 construct: endogenous in cells; host or cells: Molt4 (ATCC CRL-1582) and Ramos (ATCC CRL-1596), mixed lysate 1:2
Outline: (§1)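 Competition binding: compound dilutions (1:3 series, 9 steps) plus immobilized aminopyrido-pyrimidine beads incubated 3 h in the cold with mixed Molt4/Ramos lysate (1:2) at 10 mg/mL protein. Bead-bound JAK2/TYK2 eluted and quantified by antibody dot blot with infrared detection; IC50 from dose-response curves.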

TYK2 = molecular target: T2, TYK2 (Homo sapiens, UniProt P29597); experiment: Kinobeads assay, TYK2 (competition binding in mixed Molt4/Ramos cell lysate, dot blot detection)
T2 construct: endogenous in cells; host or cells: Molt4 (ATCC CRL-1582) and Ramos (ATCC CRL-1596), mixed lysate 1:2
Outline: as §1

[1] = Kinobeads assay, Molt4/Ramos lysate, read-out: TYK2 Band (Kinobeads assay potency, IC50)

T2 sequence (P29597 whole entry): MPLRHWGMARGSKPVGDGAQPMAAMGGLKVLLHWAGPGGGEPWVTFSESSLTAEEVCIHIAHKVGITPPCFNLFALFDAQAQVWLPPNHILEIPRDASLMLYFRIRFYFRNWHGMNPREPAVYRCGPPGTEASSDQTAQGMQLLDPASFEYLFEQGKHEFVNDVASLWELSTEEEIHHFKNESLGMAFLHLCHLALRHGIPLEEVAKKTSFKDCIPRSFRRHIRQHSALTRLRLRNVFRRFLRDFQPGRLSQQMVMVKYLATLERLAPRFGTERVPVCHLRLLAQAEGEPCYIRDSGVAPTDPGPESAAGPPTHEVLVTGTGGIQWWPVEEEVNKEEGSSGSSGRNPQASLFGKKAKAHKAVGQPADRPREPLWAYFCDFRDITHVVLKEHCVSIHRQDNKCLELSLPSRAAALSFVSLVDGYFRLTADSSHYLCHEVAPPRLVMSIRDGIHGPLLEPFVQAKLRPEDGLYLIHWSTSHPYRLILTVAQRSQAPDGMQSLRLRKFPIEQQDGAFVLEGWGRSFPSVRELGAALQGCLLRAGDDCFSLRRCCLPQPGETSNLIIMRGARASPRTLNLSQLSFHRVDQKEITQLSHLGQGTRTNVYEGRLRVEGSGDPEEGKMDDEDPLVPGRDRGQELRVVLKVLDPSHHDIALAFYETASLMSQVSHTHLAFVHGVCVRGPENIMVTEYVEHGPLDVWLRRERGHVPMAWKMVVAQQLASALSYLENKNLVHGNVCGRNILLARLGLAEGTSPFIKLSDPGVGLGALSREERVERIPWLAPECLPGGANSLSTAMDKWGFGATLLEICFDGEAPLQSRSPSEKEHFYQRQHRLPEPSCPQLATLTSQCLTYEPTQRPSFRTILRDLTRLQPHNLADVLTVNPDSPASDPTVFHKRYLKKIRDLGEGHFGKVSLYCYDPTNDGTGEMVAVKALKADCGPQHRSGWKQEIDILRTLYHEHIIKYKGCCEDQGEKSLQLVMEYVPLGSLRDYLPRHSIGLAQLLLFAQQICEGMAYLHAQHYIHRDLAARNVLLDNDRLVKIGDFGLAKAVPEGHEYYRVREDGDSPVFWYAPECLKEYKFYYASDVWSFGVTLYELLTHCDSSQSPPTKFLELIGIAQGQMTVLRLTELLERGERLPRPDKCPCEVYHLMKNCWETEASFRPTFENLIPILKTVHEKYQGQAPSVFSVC
T1 sequence (O60674 whole entry): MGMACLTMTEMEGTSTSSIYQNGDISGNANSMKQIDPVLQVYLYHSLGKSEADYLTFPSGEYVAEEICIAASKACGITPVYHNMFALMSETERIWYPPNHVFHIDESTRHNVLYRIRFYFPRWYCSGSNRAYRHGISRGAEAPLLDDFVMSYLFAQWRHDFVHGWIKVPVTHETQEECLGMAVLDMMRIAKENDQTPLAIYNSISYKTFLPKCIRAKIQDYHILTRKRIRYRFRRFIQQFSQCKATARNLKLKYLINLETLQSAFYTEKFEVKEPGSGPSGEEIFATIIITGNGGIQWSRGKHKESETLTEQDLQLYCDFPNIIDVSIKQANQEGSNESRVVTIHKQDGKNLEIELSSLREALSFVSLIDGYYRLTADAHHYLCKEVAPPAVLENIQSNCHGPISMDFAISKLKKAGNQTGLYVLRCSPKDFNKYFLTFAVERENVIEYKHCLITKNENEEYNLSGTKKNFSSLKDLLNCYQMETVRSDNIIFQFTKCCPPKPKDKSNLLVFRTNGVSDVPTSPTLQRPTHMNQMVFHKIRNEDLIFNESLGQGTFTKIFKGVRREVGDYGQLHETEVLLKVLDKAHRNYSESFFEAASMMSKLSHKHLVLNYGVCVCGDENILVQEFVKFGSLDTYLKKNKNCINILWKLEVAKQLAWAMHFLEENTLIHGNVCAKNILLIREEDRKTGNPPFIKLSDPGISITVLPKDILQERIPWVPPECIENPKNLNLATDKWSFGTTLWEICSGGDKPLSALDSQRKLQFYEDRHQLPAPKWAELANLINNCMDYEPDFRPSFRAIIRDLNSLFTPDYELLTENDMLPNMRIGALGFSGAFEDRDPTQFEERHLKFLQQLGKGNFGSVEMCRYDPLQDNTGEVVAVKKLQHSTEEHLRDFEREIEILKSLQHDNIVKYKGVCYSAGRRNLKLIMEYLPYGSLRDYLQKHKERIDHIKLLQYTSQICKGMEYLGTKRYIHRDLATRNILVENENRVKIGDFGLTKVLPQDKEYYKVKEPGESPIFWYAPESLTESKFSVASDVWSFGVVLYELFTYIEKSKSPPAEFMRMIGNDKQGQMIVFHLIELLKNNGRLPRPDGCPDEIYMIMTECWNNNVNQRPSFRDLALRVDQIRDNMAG

IC50 (JAK2) [nM]	IC50 (TYK2; [1]) [nM]	IC50 (TYK2; read-out: TYK2 IC50) [nM]	SMILES
100 to 1000	≤ 10		COc1ccc(F)c(CNc2nc(Nc3cnn(CC(=O)N4CCOCC4)c3)ncc2C)c1F [Example I-22]
100 to 1000	10 to 100		COc1ccc(S(C)(=O)=O)cc1CNc1nc(Nc2cnn(C)c2)ncc1Cl [Example I-449]
1000 to 10000	10 to 100		CC1(C)COCCN1C(=O)Cn1cc(Nc2ncc(F)c(NCc3c(F)cc(F)cc3F)n2)cn1 [Example I-309]
1000 to 10000	100 to 1000		C[C@@H](C(N)=O)n1cc(Nc2ncc(Cl)c(NCc3ccccc3)n2)cn1 [Example I-291]
100 to 1000	10 to 100		CNC(=O)Cn1cc(Nc2ncc(Cl)c(NCc3cc(C(F)(F)F)ccc3Cl)n2)cn1 [Example I-280]
1000 to 10000	100 to 1000		CC(C)Oc1cccc(CNc2nc(Nc3cnn(CCO)c3)ncc2Cl)c1 [Example I-334]
1000 to 10000	100 to 1000		Cc1cnc(Nc2cnn(CC(F)F)c2)nc1NCc1cccc(S(C)(=O)=O)c1 [Example I-466]
1000 to 10000	100 to 1000		CC(O)Cn1cc(Nc2ncc(Cl)c(NCc3cccc(F)c3)n2)cn1 (stereo not shown) [Example I-214]
10 to 100	≤ 10		OCCn1cc(Nc2ncc(Cl)c(NCc3c(F)ccc(F)c3F)n2)cn1 [Example I-373]
1000 to 10000	100 to 1000		NC(=O)Cn1cc(Nc2ncc(Cl)c(NCc3ccccc3CO)n2)cn1 [Example I-288]
> 10000	10 to 100		COC[C@H](C)NC(=O)Cn1cc(Nc2ncc(F)c(NCc3c(F)cc(F)cc3F)n2)cn1 [Example I-71]
> 10000	10 to 100		NS(=O)(=O)c1ccc(CNc2nc(Nc3cnn(CCO)c3)ncc2F)cc1 [Example I-9]
100 to 1000	≤ 10		Cc1cnc(Nc2cnn(CC(=O)N3CCOCC3)c2)nc1NCc1c(F)cccc1F [Example I-305]
100 to 1000	≤ 10		Cc1cnc(Nc2cnn(CC(=O)N3CCOCC3)c2)nc1NCc1c(F)cc(S(N)(=O)=O)cc1F [Example I-378]
1000 to 10000	10 to 100		CC(C)CNC(=O)Cn1cc(Nc2ncc(Cl)c(NCc3cccc(OC(F)F)c3)n2)cn1 [Example I-392]
1000 to 10000	100 to 1000		Cn1cc(Nc2ncc(Cl)c(NCc3cc(C(F)(F)F)ccc3Cl)n2)cn1 [Example I-278]
1000 to 10000	100 to 1000		[2H]C([2H])(O)C([2H])([2H])n1cc(Nc2ncc(Cl)c(NCc3cccc(F)c3)n2)cn1 [Example I-232]
1000 to 10000	10 to 100		CNC(=O)Cn1cc(Nc2ncc(F)c(NCc3cc(S(C)(=O)=O)ccc3OC)n2)cn1 [Example I-448]
1000 to 10000	≤ 10		C[C@@H](CO)NC(=O)Cn1cc(Nc2nccc(NCc3c(F)cc(F)cc3Cl)n2)cn1 [Example I-132]
1000 to 10000	1000 to 10000		CS(=O)(=O)c1cccc(CNc2nc(Nc3cnn(CC(F)F)c3)ncc2Cl)c1 [Example I-467]
1000 to 10000	100 to 1000		COCCNC(=O)Cn1cc(Nc2ncc(Cl)c(NCc3ccccc3)n2)cn1 [Example I-273]
> 10000	10 to 100		C[C@@H](CO)NC(=O)Cn1cc(Nc2nccc(NCc3c(F)cncc3F)n2)cn1 [Example I-146]

IC50 (JAK2) [nM]	IC50 (TYK2; [1]) [nM]	IC50 (TYK2; read-out: TYK2 IC50) [nM]	SMILES
100 to 1000	100 to 1000		OCCn1cc(Nc2ncc(Cl)c(NCc3cc(Br)cc(F)c3F)n2)cn1 [Example I-264]
100 to 1000	10 to 100		OCCn1cc(Nc2ncc(Cl)c(NCc3cc(C(F)(F)F)ccc3F)n2)cn1 [Example I-281]
1000 to 10000	100 to 1000		COc1ccccc1CNc1nc(Nc2cnn(CC(N)=O)c2)ncc1Cl [Example I-321]
1000 to 10000	10 to 100		COc1ccc(F)c(CNc2ccnc(Nc3cnn(CC(=O)N[C@@H]4C[C@@H]4F)c3)n2)c1F [Example I-128]
100 to 1000	≤ 10		CNC(=O)Cn1cc(Nc2ncc(C)c(NCc3c(F)ccc(F)c3F)n2)cn1 [Example I-421]
> 10000	10 to 100		O=C(Cn1cc(Nc2nccc(NCc3c(F)cc(F)cc3F)n2)cn1)NC1CC1(F)F (stereo not shown) [Example I-91]
100 to 1000	10 to 100		N#Cc1cccc(CNc2nc(Nc3cnn(CC(=O)N4CCOCC4)c3)ncc2Cl)c1 [Example I-172]
1000 to 10000	100 to 1000		Cn1cc(Nc2ncc(Cl)c(NCc3cccc(Br)c3)n2)cn1 [Example I-163]
10 to 100	≤ 10		COc1ccc(F)c(CNc2nc(Nc3cnn(CCO)c3)ncc2C)c1F [Example I-304]
1000 to 10000	≤ 10		COc1ccc(F)c(CNc2nc(Nc3cnn(CC(=O)N(C)C(C)C)c3)ncc2F)c1F [Example I-57]
1000 to 10000	1000 to 10000		CS(=O)(=O)c1ccccc1CNc1nc(Nc2cnn(CC(F)F)c2)ncc1Cl [Example I-471]
100 to 1000	100 to 1000		CNC(=O)Cn1cc(Nc2ncc(Cl)c(NCc3ccccc3F)n2)cn1 [Example I-211]
1000 to 10000	10 to 100		CC(C)(CF)NC(=O)Cn1cc(Nc2nccc(NCc3c(F)cc(F)cc3F)n2)cn1 [Example I-430]
100 to 1000	100 to 1000		C[C@H](O)Cn1cc(Nc2ncc(Cl)c(NCc3ccccc3F)n2)cn1 [Example I-257]
1000 to 10000	10 to 100		OCCn1cc(Nc2ncc(F)c(NCc3c(F)cc(F)cc3F)n2)cn1 [Example I-17]
100 to 1000	10 to 100		CS(=O)(=O)c1ccc(F)cc1CNc1nc(Nc2cn[nH]c2)ncc1Cl [Example I-72]
100 to 1000	10 to 100		O=C(Cn1cc(Nc2ncc(Cl)c(NCc3cncc(F)c3)n2)cn1)N1CCOCC1 [Example I-339]
100 to 1000	10 to 100		Cc1cnc(Nc2cnn(C)c2)nc1NCc1c(F)ccc(F)c1F [Example I-420]
> 10000	10 to 100		COc1ccc(F)c(CNc2nc(Nc3cnn(CC(=O)O)c3)ncc2F)c1F [Example I-426]
1000 to 10000	10 to 100		CN(C)C(=O)Cn1cc(Nc2ncc(Cl)c(NCc3cc(OC(F)F)ccc3F)n2)cn1 [Example I-414]
1000 to 10000	1000 to 10000		Cc1cnc(Nc2cnn(CC(F)(F)F)c2)nc1NCc1cc(F)cc(F)c1F [Example I-351]
1000 to 10000	10 to 100		CNC(=O)Cn1cc(Nc2ncc(F)c(NCc3c(F)ccc(F)c3F)n2)cn1 [Example I-410]

IC50 (JAK2) [nM]	IC50 (TYK2; [1]) [nM]	IC50 (TYK2; read-out: TYK2 IC50) [nM]	SMILES
1000 to 10000	10 to 100		NC(=O)Cn1cc(Nc2nccc(NCc3c(F)cccc3F)n2)cn1 [Example I-313]
100 to 1000	10 to 100		CNS(=O)(=O)c1ccccc1CNc1nc(Nc2cnn(CCO)c2)ncc1Cl [Example I-472]
> 10000	100 to 1000		COc1ccc(F)c(CNc2nc(Nc3cnn(CCOC(C)C)c3)ncc2F)c1F [Example I-394]
1000 to 10000	10 to 100		OCCn1cc(Nc2ncc(Cl)c(NCc3ncccc3F)n2)cn1 [Example I-259]
1000 to 10000	≤ 10	< 100	COc1ccc(F)c(CNc2ccnc(Nc3cnn(CC(=O)NC4CC4)c3)n2)c1F [Example I-125]
1000 to 10000	≤ 10		CC(C)NC(=O)Cn1cc(Nc2nccc(NCc3c(F)cccc3Cl)n2)cn1 [Example I-77]
100 to 1000	100 to 1000		CNC(=O)Cn1cc(Nc2ncc(Cl)c(NCc3ccccc3S(=O)(=O)N(C)C)n2)cn1 [Example I-356]
100 to 1000	10 to 100		COc1ccc(F)c(CNc2nc(Nc3cnn(CC(N)=O)c3)ncc2Cl)c1F [Example I-375]
1000 to 10000	100 to 1000		O=C(Cn1cc(Nc2ncc(F)c(NCc3cc(F)cc(C(F)(F)F)c3)n2)cn1)N1CCOCC1 [Example I-332]
1000 to 10000	10 to 100		O=C(Cn1cc(Nc2nccc(NCc3c(F)cccc3Cl)n2)cn1)NCC(F)F [Example I-141]
1000 to 10000	1000 to 10000		Cc1cnc(Nc2cnn(CC(F)F)c2)nc1NCc1cccc(F)c1F [Example I-347]
10 to 100	10 to 100		Cc1cnc(Nc2cnn(C)c2)nc1NCc1cc(F)cc(F)c1 [Example I-343]
> 10000	10 to 100		CC(C)NC(=O)Cn1cc(Nc2nccc(NCc3c(Cl)ccc(F)c3Cl)n2)cn1 [Example I-119]
1000 to 10000	1000 to 10000		Cc1cnc(Nc2cnn(CCC(F)(F)F)c2)nc1NCc1cc(F)cc(F)c1 [Example I-463]
1000 to 10000	≤ 10		Cc1cnc(Nc2cnn(CC(=O)N3CCOCC3)c2)nc1NCc1cccc(OC(F)F)c1 [Example I-23]
100 to 1000	≤ 10		Cc1cnc(Nc2cnn(CC(=O)N[C@@H](C)CO)c2)nc1NCc1c(F)cc(F)cc1F [Example I-36]
1000 to 10000	10 to 100		O=C(O)Cn1cc(Nc2ncc(Cl)c(NCc3c(F)cccc3F)n2)cn1 [Example I-165]
100 to 1000	10 to 100		OCCn1cc(Nc2ncc(Cl)c(NCc3cccc(F)c3F)n2)cn1 [Example I-180]
1000 to 10000	100 to 1000		Cc1cnc(Nc2cnn(CC(N)=O)c2)nc1NCc1ccccc1S(C)(=O)=O [Example I-434]
1000 to 10000	10 to 100		COc1ccc(F)c(CNc2nc(Nc3cnn(C)c3)ncc2Cl)c1F [Example I-319]
1000 to 10000	10 to 100		O=C(Cn1cc(Nc2ncc(F)c(NCc3c(F)cc(F)cc3F)n2)cn1)NC1CC1 [Example I-4, N-cyclopropyl-2-(4-((5-fluoro-4-((2,4,6-trifluorobenzyl)amino)pyrimidin-2-yl)amino)-1H-pyrazol-1-yl)acetamide]
100 to 1000	1000 to 10000		OCCn1cc(Nc2ncc(Cl)c(NCc3ccccn3)n2)cn1 [Example I-247]
